Residue numbers refer to the chain shown, from its start. Names and notes keep the numbering of the source. Read-outs that look alike come from different tables or passages of the source. Marks after values point to notes of the source that are not given here.
Tests used:
CATPO T188A variant [1] = molecular target: T1, CATPO T188A variant (Scytalidium thermophilum (Humicola insolens), UniProt M4GGR5, T207A); experiment: biochemical
CATPO E484I variant [2] = molecular target: T2, CATPO E484I variant (Scytalidium thermophilum (Humicola insolens), UniProt M4GGR5, E503I); experiment: biochemical
T2 sequence (M4GGR5 entry or part of it E503I): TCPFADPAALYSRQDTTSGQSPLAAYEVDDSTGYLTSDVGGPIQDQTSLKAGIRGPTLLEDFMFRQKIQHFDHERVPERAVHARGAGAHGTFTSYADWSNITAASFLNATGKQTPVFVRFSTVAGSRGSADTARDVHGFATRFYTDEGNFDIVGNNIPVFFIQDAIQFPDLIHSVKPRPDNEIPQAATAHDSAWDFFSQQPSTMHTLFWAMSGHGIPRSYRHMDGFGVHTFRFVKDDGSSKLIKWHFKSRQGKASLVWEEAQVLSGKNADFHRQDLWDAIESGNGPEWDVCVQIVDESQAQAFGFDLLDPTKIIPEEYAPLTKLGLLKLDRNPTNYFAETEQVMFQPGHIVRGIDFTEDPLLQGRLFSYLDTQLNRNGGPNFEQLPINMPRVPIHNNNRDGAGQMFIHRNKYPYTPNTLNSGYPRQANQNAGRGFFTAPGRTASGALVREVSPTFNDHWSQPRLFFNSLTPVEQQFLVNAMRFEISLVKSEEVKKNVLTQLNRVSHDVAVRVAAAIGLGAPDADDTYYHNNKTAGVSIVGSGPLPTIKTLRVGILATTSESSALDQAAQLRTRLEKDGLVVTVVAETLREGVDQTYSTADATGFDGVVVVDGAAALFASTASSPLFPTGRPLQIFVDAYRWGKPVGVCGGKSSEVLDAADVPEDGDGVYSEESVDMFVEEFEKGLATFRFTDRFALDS

CATPO T188I variant [3] = molecular target: T3, CATPO T188I variant (Scytalidium thermophilum (Humicola insolens), UniProt M4GGR5, T207I); experiment: biochemical
T3 sequence (M4GGR5 entry or part of it T207I): as the sequence (M4GGR5 entry or part of it E503I) above

CATPO T188D variant [4] = molecular target: T4, CATPO T188D variant (Scytalidium thermophilum (Humicola insolens), UniProt M4GGR5, T207D); experiment: biochemical
T4 sequence (M4GGR5 entry or part of it T207D): as the sequence (M4GGR5 entry or part of it E503I) above

CATPO E484A variant [5] = molecular target: T5, CATPO E484A variant (Scytalidium thermophilum (Humicola insolens), UniProt M4GGR5, E503A); experiment: biochemical
T5 sequence (M4GGR5 entry or part of it E503A): as the sequence (M4GGR5 entry or part of it E503I) above

CATPO [6] = molecular target: T6, CATPO (Scytalidium thermophilum (Humicola insolens), UniProt M4GGR5); experiment: Inhibition of catechol oxidation; format: biochemical; settings: for inhibition type: catechol oxidase activity of wild-type CATPO, Lineweaver–Burk
T6 sequence (M4GGR5 entry or part of it): as the sequence (M4GGR5 entry or part of it E503I) above

CATPO T188F variant [7] = molecular target: T7, CATPO T188F variant (Scytalidium thermophilum (Humicola insolens), UniProt M4GGR5, T207F); experiment: biochemical
T7 sequence (M4GGR5 entry or part of it T207F): as the sequence (M4GGR5 entry or part of it E503I) above

CATPO E484D variant [8] = molecular target: T8, CATPO E484D variant (Scytalidium thermophilum (Humicola insolens), UniProt M4GGR5, E503D); experiment: biochemical
T8 sequence (M4GGR5 entry or part of it E503D): as the sequence (M4GGR5 entry or part of it E503I) above

CATPO E484I variant [9] = molecular target: T2, CATPO E484I variant; format: biochemical; settings: for K m: pH 7.0 (ABTS pH 5.0), 60°C
CATPO T188I variant [10] = molecular target: T3, CATPO T188I variant; format: biochemical; settings: for K m: pH 7.0 (ABTS pH 5.0), 60°C
CATPO T188A variant [11] = molecular target: T1, CATPO T188A variant; format: biochemical; settings: for K m: pH 7.0 (ABTS pH 5.0), 60°C
CATPO E484A variant [12] = molecular target: T5, CATPO E484A variant; experiment: Substrate-specificity analysis of the phenol oxidase activity; format: biochemical; settings: for K m: pH 7.0 (ABTS pH 5.0), 60°C
CATPO [13] = molecular target: T6, CATPO; experiment: as above; format: biochemical; settings: for K m: pH 7.0 (ABTS pH 5.0), 60°C
CATPO T188D variant [14] = molecular target: T4, CATPO T188D variant; format: biochemical; settings: for K m: pH 7.0 (ABTS pH 5.0), 60°C
CATPO E484D variant [15] = molecular target: T8, CATPO E484D variant; format: biochemical; settings: for K m: pH 7.0 (ABTS pH 5.0), 60°C
CATPO T188F variant [16] = molecular target: T7, CATPO T188F variant; format: biochemical; settings: for K m: pH 7.0 (ABTS pH 5.0), 60°C
[17] = substrate: CC(C)(C)c1ccc(O)c(O)c1; experiment: Spectrophotometric phenol oxidase assay without H2O2 at pH 7.0 and 60 °C, initial rates fitted to the Michaelis-Menten equation.; format: biochemical
Protocol: (§1) All inhibition assays were performed in triplicate.

[18] = substrate: Cc1ccc(O)c(O)c1; experiment: as above; format: biochemical
Protocol: as §1

[19] = substrate: Oc1ccc(O)cc1; experiment: as above; format: biochemical
Protocol: as §1

[20] = substrate: Oc1ccccc1O; experiment: Phenol oxidase activity (H2O2-independent) measured spectrophotometrically by product formation at pH 7.0, 60 C, Michaelis-Menten fit.; format: biochemical
Protocol: as §1

[21] = substrate: CCn1c(=NN=c2sc3cc(S(=O)(=O)O)ccc3n2CC)sc2cc(S(=O)(=O)O)ccc21; experiment: purified protein, by the assay type; settings: 60.0 °C
[22] = catechol oxidation by CATPO, catechol 1 to 100 mM, read-out: K i
[23] = catechol oxidation by T188A, read-out: K i
[24] = catechol oxidation by E484I, read-out: K i
[25] = catechol oxidation by T188D, read-out: K i
[26] = catechol oxidation by E484A, read-out: K i
[27] = catechol oxidation by T188F, read-out: K i
[28] = catechol oxidation by E484D, read-out: K i

T1 sequence (M4GGR5 entry or part of it T207A): as the sequence (M4GGR5 entry or part of it E503I) above

## Nc1nc[nH]n1 [3TR, 3-amino-1,2,4-triazole]
CATPO T188A variant [1]
  Ki: 20 ± 0.2 mM
CATPO E484I variant [2]
  Ki: 40 ± 4 mM
CATPO T188I variant [3]
  Ki: 42 ± 4 mM
CATPO T188D variant [4]
  Ki: 41 ± 4.1 mM
CATPO E484A variant [5]
  Ki: 65 ± 5.5 mM
CATPO [6]
  inhibition type: competitive
CATPO [6]; [22]
  Ki: 21 ± 1 mM
CATPO T188F variant [7]
  Ki: 54 ± 4.5 mM
CATPO E484D variant [8]
  Ki: 22 ± 3.2 mM

## CCn1c(=NN=c2sc3cc(S(=O)(=O)O)ccc3n2CC)sc2cc(S(=O)(=O)O)ccc21 [ABTS, 2,2′-azino-bis(3-ethylbenzthiazoline-6-sulfonic acid)]
CATPO E484I variant [9]
  V max: 4600 ± 98 mM/min
  k cat/K m: 170 ± 10 s^−1 M^−1 (×10^2)
  K m: 50 ± 0.5 mM
CATPO T188I variant [10]
  V max: 6000 ± 100 mM/min
  k cat/K m: 190 ± 18 s^−1 M^−1 (×10^2)
  K m: 48 ± 0.7 mM
CATPO T188A variant [1]; [23]
  Ki: 12 ± 1.2 mM
CATPO E484I variant [2]; [24]
  Ki: 81 ± 8 mM
CATPO T188A variant [11]
  V max: 5000 ± 100 mM/min
  k cat/K m: 90 ± 5 s^−1 M^−1 (×10^2)
  K m: 52 ± 0.8 mM
CATPO E484A variant [12]
  V max: 8600 ± 220 mM/min
  k cat/K m: 300 ± 10 s^−1 M^−1 (×10^2)
  K m: 46 ± 1.0 mM
CATPO T188D variant [4]; [25]
  Ki: 81 ± 1 mM
CATPO E484A variant [5]; [26]
  Ki: 96 ± 5.4 mM
CATPO [6]; [22]
  Ki: 11 ± 1 mM
CATPO [13]
  V max: 5620 ± 250 mM/min
  k cat/K m: 590 ± 20 s^−1 M^−1 (×10^2)
  K m: 50 ± 1.5 mM
CATPO T188F variant [7]; [27]
  Ki: 84 ± 7 mM
CATPO T188D variant [14]
  V max: 4000 ± 88 mM/min
  k cat/K m: 200 ± 25 s^−1 M^−1 (×10^2)
  K m: 55 ± 1.0 mM
CATPO E484D variant [8]; [28]
  Ki: 12 ± 1.2 mM
CATPO E484D variant [15]
  V max: 5500 ± 132 mM/min
  k cat/K m: 100 ± 10 s^−1 M^−1 (×10^2)
  K m: 53 ± 1.0 mM
CATPO T188F variant [16]
  V max: 6600 ± 120 mM/min
  k cat/K m: 270 ± 25 s^−1 M^−1 (×10^2)
  K m: 45 ± 0.5 mM

## Oc1ccccc1O [Catechol, catechol]
CATPO E484I variant [9]
  V max: 50000 ± 1988 mM/min
  k cat/K m: 8800 ± 72 s^−1 M^−1 (×10^2)
  K m: 30 ± 1.0 mM
CATPO T188I variant [10]
  V max: 65000 ± 1100 mM/min
  k cat/K m: 9200 ± 45 s^−1 M^−1 (×10^2)
  K m: 31 ± 0.5 mM
CATPO T188A variant [11]
  V max: 22500 ± 1000 mM/min
  k cat/K m: 2000 ± 120 s^−1 M^−1 (×10^2)
  K m: 33 ± 0.5 mM
CATPO E484A variant [12]
  V max: 88000 ± 880 mM/min
  k cat/K m: 14500 ± 130 s^−1 M^−1 (×10^2)
  K m: 30 ± 1.0 mM
CATPO [13]
  V max: 25000 ± 763 mM/min
  k cat/K m: 2200 ± 130 s^−1 M^−1 (×10^2)
  K m: 33 ± 0.5 mM
CATPO T188D variant [14]
  V max: 40000 ± 4000 mM/min
  k cat/K m: 8900 ± 70 s^−1 M^−1 (×10^2)
  K m: 25 ± 1.5 mM
CATPO E484D variant [15]
  V max: 23000 ± 1500 mM/min
  k cat/K m: 2100 ± 105 s^−1 M^−1 (×10^2)
  K m: 35 ± 0.5 mM
CATPO T188F variant [16]
  V max: 70000 ± 1290 mM/min
  k cat/K m: 10200 ± 220 s^−1 M^−1 (×10^2)
  K m: 30 ± 1.0 mM

## O=C(NO)c1ccccc1O [Salicylhydroxamic acid, salicylhydroxamic acid]
CATPO T188A variant [1]
  Ki: 2.2 ± 0.4 mM
CATPO E484I variant [2]
  Ki: 5.4 ± 0.5 mM
CATPO T188I variant [3]
  Ki: 5.4 ± 0.9 mM
CATPO T188D variant [4]
  Ki: 5.4 ± 0.4 mM
CATPO E484A variant [5]
  Ki: 6.7 ± 1.1 mM
CATPO [6]
  Ki: 2.2 ± 0.4 mM
  inhibition type: competitive
CATPO T188F variant [7]
  Ki: 5.5 ± 0.7 mM
CATPO E484D variant [8]
  Ki: 2 ± 0.4 mM

## [N-]=[N+]=[N-].[Na+] [Sodium azide, sodium azide]
CATPO T188A variant [1]; [23]
  Ki: 42 ± 1.4 mM
CATPO E484I variant [2]; [24]
  Ki: 56 ± 1.6 mM
CATPO T188I variant [3]; catechol oxidation by T188I, read-out: K i
  Ki: 60 ± 6 mM
CATPO T188D variant [4]; [25]
  Ki: 55 ± 5 mM
CATPO E484A variant [5]; [26]
  Ki: 74 ± 4.8 mM
CATPO [6]
  inhibition type: competitive
CATPO [6]; [22]
  Ki: 42 ± 1.2 mM
CATPO T188F variant [7]; [27]
  Ki: 62 ± 2.5 mM
CATPO E484D variant [8]; [28]
  Ki: 41 ± 4.1 mM

B1: T188F (Mycothermus thermophilus; T207F) (protein)
chain: TCPFADPAALYSRQDTTSGQSPLAAYEVDDSTGYLTSDVGGPIQDQTSLKAGIRGPTLLEDFMFRQKIQHFDHERVPERAVHARGAGAHGTFTSYADWSNITAASFLNATGKQTPVFVRFSTVAGSRGSADTARDVHGFATRFYTDEGNFDIVGNNIPVFFIQDAIQFPDLIHSVKPRPDNEIPQAAFAHDSAWDFFSQQPSTMHTLFWAMSGHGIPRSYRHMDGFGVHTFRFVKDDGSSKLIKWHFKSRQGKASLVWEEAQVLSGKNADFHRQDLWDAIESGNGPEWDVCVQIVDESQAQAFGFDLLDPTKIIPEEYAPLTKLGLLKLDRNPTNYFAETEQVMFQPGHIVRGIDFTEDPLLQGRLFSYLDTQLNRNGGPNFEQLPINMPRVPIHNNNRDGAGQMFIHRNKYPYTPNTLNSGYPRQANQNAGRGFFTAPGRTASGALVREVSPTFNDHWSQPRLFFNSLTPVEQQFLVNAMRFEISLVKSEEVKKNVLTQLNRVSHDVAVRVAAAIGLGAPDADDTYYHNNKTAGVSIVGSGPLPTIKTLRVGILATTSESSALDQAAQLRTRLEKDGLVVTVVAETLREGVDQTYSTADATGFDGVVVVDGAAALFASTASSPLFPTGRPLQIFVDAYRWGKPVGVCGGKSSEVLDAADVPEDGDGVYSEESVDMFVEEFEKGLATFRFTDRFALDS
notes: recombinant, pET-28-TEV-CATPO; contains heme b; Rz 0.8
[17]
  Km: 34 ± 0.4 mM
[18]
  Km: 32 ± 1.0 mM
[19]
  Km: 42 ± 1.0 mM
[20]
  Km: 30 ± 1.0 mM
  kcat: 30600 ± 1800 s⁻¹
  kcat/Km: 1.02e+06 ± 22000 M⁻¹ s⁻¹
[21]
  Km: 45 ± 0.5 mM

B2: E484A (Mycothermus thermophilus; E503A) (protein)
chain: B1 chain with F188T, E484A
notes: as for B1
[17]
  Km: 33 ± 0.5 mM
[18]
  Km: 33 ± 1.0 mM
[19]
  Km: 43 ± 1.2 mM
[20]
  Km: 30 ± 1.0 mM
  kcat/Km: 1.45e+06 ± 13000 M⁻¹ s⁻¹
[21]
  Km: 46 ± 1.0 mM

B3: E484D (Mycothermus thermophilus; E503D) (protein)
chain: B1 chain with F188T, E484D
notes: recombinant, pET-28-TEV-CATPO; contains heme d; Rz 0.8
[17]
  Km: 38 ± 0.5 mM
[18]
  Km: 36 ± 0.1 mM
[19]
  Km: 46 ± 0.8 mM
[20]
  Km: 35 ± 0.5 mM
  kcat: 7400 ± 296 s⁻¹
  kcat/Km: 210000 ± 10500 M⁻¹ s⁻¹
[21]
  Km: 53 ± 1.0 mM

Source: article PMC10836395, “Investigation of how gate residues in the main channel affect the catalytic activity of Scytalidium thermophilum catalase” (Acta Crystallographica. Section D, Structural Biology, 2024)
